Source: patent US20250100962A1 (CITY OF HOPE, priority 2023, published 2025)
“Also recorded” adds a separate entry of the source.

Legend:
[1] = test system: U2OS cells containing Per2::dLuc luciferase reporter; assay: Real-time bioluminescence monitoring of Per2::Luciferase reporter in U2OS cells (LumiCycle); assay type: cell-based; conditions: for Modulatory Property: clock-modulatory classification
Procedure: U2OS cells or mouse fibroblasts (MF) containing a Per2-luciferase reporter (Yoo et al., 2004) were seeded at 4×10^5 concentration on 24 well plates and treated at 90% confluence with 1 ml 1×Fresh explant medium with desired compounds and controls. The seeding density was decided after trying several densities and choosing the one that after 24 h lead to 90% confluence. 1× Fresh explant medium was produced using 50% 2×DMEM buffer stock [DMEM powder (Gibco—Thermo Fisher CN: 12800-017), Sterile MilliQ water, pH7 1 M HEPES (Gibco—Thermo Fisher CN:15630080) and 7.5% Sodium Bicarbonate (Gibco—Thermo Fisher CN: 25080094)], 10% FBS (Cytiva), 37.9% Sterile MiliQ water, 1% PSG 100× (Gibco—Thermo Fisher CN: 10378016), 0.1% Sodium Hydroxixe (NaOH) 100 mM (Fishel Chemical CN: S318-500), 1% XenoLight D-Luciferin—Monopotassium Salt Bioluminiscent Substrate 100 mM (PerkinElmer CN: 122799). Treated cells were introduced to the LumiCycle96 (ActiMetrics) were they were cultured and Per2-luciferafe reporter luminescence was measured for 6 days. Raw and subtracted results for 5 days were exported and data was calculated as luminescence counts per second.

mdx mice = assay: Direct intramuscular injection into Tibialis Anterior muscle of mdx mice; assay type: in vivo, mouse; conditions: for Evans Blue Dye (EBD) positive area (muscle damage): 150 ul of 2 uM daily for 3 days; for amount of satellite cells / satellite cell proliferation (EdU+/Pax7+ within Pax7+ pool): 150 μl of 2 μM daily for three days; for transcript levels of clock regulators and myogenic factors / expression of pro-inflammatory cytokines TNF-α, IL-6 and iNOS: RT-qPCR; for transcript levels of clock regulators and myogenic factors: mdx muscle; for expression of pro-inflammatory cytokines TNF-α, IL-6 and iNOS: mdx TA muscle, 3 daily doses; for reduction of creatine kinase (CK) levels, ex vivo TA explants: media of TA explant cultured 24 hours; for myofiber size distribution (cross section area) / Pax7 and CyclinD1 / new myofiber formation (eMyHC staining) / protein levels of clock regulators Bmal1, CLOCK, Rev-erbα / protein levels of myogenic factors: three daily doses; for Pax7 and CyclinD1 / new myofiber formation (eMyHC staining) / protein levels of clock regulators Bmal1, CLOCK, Rev-erbα / protein levels of myogenic factors: 50 μl of 2 μM
Description: FIGS. 17A-17C. In vivo effect of chlorhexidine on inducing regenerative repair of mdx dystrophic muscle. Based on the effects of CHX on promoting myogenic differentiation, we postulated that it may enhance myogenesis in vivo to promote regenerative repair in dystrophic muscle. […] FIG. 17A: Initial preliminary data was obtained from mice injected with one or two injections (one day apart) of CHX dissolved in DMSO. […] FIG. 17B: Next, we further tested the in vivo effect of CHX by three doses using PBS solution to avoid potential membrane damage by DMSO. […] FIG. 17C: Lastly, we examined the effect of triple CHX injection on clock and myogenic factor proteins in individual and individual mdx muscle. […] Variability observed between individual mice could be due to the in vivo injection.
FIG. 18. In vivo effect of chlorhexidine on inducing nascent myofiber regeneration of mdx dystrophic muscle. To directly examine effect of CHX in vivo injection on dystrophic muscle repair, we performed immunofluorescence staining of embryonic myosin heavy chain (eMyHC) to identify nascent regenerated myofiber using frozen TA cross sections from mdx mice following triple injections. Laminin staining was used to delineate basal lamina of myofiber.
FIGS. 43A-43D. CHX and CM002 promote regenerative myogenesis in dystrophic mdx mice. Based on the effect of CHX and CM002 on promoting regenerative myogenesis, we next tested whether they exert protective effects in dystrophic disease conditions via local intramuscular delivery in the mdx mice, an established model for muscular dystrophy.
FIGS. 44A-44D. CM002 and CHX stimulate satellite cell proliferative expansion and myogenic gene induction in mdx mice. As Pax7 and CyclinD1 levels were increased by CM002 and CHX in mdx TA, we directly examined the proliferation of satellite cells via EdU labeling with co-staining for Pax7 to identify satellite cells.
FIGS. 45A-45D. CM002 and CHX protects against dystrophic muscle damage in mdx mice. Given that local delivery of CHX and CM002 stimulated new myofiber formation to promote regenerative repair, we next examined whether these effects lead to protection against dystrophic injury. […] Most importantly, using ex vivo TA explants, we determined creatine kinase secretion from treated TA muscles as a direct indicator to assess muscle injury.
FIGS. 46A-46D. CHX and CM002 ameliorate inflammatory milieu of muscular dystrophy. Chronic inflammation in dystrophic muscle, due to the persistent muscle damage with sustained degeneration and regeneration cycles, is a significant component of the pathogenic characteristics of muscular dystrophy contributing to muscle wasting. We thus determined potential ameliorative effects of CHX and CM002 on muscle inflammation in the mdx mice. […] To further test whether the reduction of inflammation in muscle could be due to direct modulation of macrophage pro-inflammatory activities, we determined CHX and CM002 effects in primary bone marrow-derived macrophages.

primary preadipocytes = assay: Adipogenic differentiation of primary preadipocytes; assay type: cell-based, mice; conditions: for mature adipocyte formation: 0.5 and 1 μM
Procedure: Primary preadipocyte isolation and adipogenic induction. The stromal vascular fraction containing preadipocytes were isolated from subcutaneous fat pads, as described (Chatterjee, Nam, Guo et al., 2013). Briefly, fat pads were cut into pieces and digested using 0.1% collagenase Type 1 with 0.8% BSA at 37° C. in a horizontal shaker for 60 minutes, passed through Nylon mesh and centrifuged to collect the pellet containing the stromal vascular fraction with preadipocytes. Preadipocytes were cultured in F12/DMEM supplemented with bFGF (2.5 ng/ml), expanded for two passages and subjected to differentiation in 6-well plates at 90% confluency. Adipogenic differentiation was induced for 2 days in medium containing 10% FBS, 1.6 μM insulin, 1 μM dexamethasone, 0.5 mM IBMX, 0.5 μM rosiglitazone before switching to maintenance medium for 4 days with insulin only. Nobiletin at indicated concentrations were added for the entire differentiation time course. Oil-red-O and Bodipy staining. These stainings for neutral lipids during adipogenic differentiation were performed as previously described (Nam et al., 2015). Briefly, for oil-red-O staining, cells were fixed using 10% formalin and incubated using 0.5% oil-red-O solution for 1 hour. Bodipy 493/503 was used at 1 mg/L together with DAPI for 15 minutes, following 4% paraformaldehyde fixation and permeabilization with 0.2% triton-X100. Immunoblot analysis. Total protein was extracted using lysis buffer containing 3% NaCl, 5% Tris-HCl, 10% Glycerol, 0.5% Triton X-10 in MilliQ water with protease inhibitor cocktail. 20-40 μg of total protein was resolved on 10% SDS-PAGE gels followed by immunoblotting on PVDF membranes (Bio-rad). Membranes were developed by chemiluminescence (SuperSignal West Pico, Pierce Biotechnology) and signals were obtained via a chemiluminescence imager (Amersham Imager 680, GE Biosciences).

[2] = U2OS Per2 luciferase reporter, recording 5-6 days, vs DMSO

Structure (SMILES)	circadian period length [1, 2]	Modulatory Property [1]	Evans Blue Dye (EBD) positive area (muscle damage) (mdx mice)	amount of satellite cells (mdx mice)	satellite cell proliferation (EdU+/Pax7+ within Pax7+ pool) (mdx mice)	transcript levels of clock regulators and myogenic factors (mdx mice)	expression of pro-inflammatory cytokines TNF-α, IL-6 and iNOS (mdx mice)	reduction of creatine kinase (CK) levels, ex vivo TA explants (mdx mice)	myofiber size distribution (cross section area) (mdx mice)	Pax7 and CyclinD1 (mdx mice)	new myofiber formation (eMyHC staining) (mdx mice)	protein levels of clock regulators Bmal1, CLOCK, Rev-erbα (mdx mice)	protein levels of myogenic factors (mdx mice)	mature adipocyte formation (primary preadipocytes; six days of differentiation)	also measured
[H]/N=C(\N/C(=N/[H])NCCCCCCNC(=N)NC(=N)Nc1ccc(Cl)cc1)Nc1ccc(Cl)cc1 [CHX, chlorhexidine]	dose-dependent reduction of period length from 0.2 to 1 μM	clock activator	significantly reduced the areas stained positive for EBD	not significantly altered	sufficient to stimulate satellite cells proliferative expansion in dystrophic muscle to a similar degree	corresponding increase of their transcript levels	consistent reduction of expression of the pro-inflammatory cytokines examined	approximately 50%	striking left shift toward smaller myofibers	also induced	increased new myofiber formation	significantly elevated	elevated protein levels of myogenic factors	dose-dependent, marked effect on suppressing mature adipocyte formation	toxicity in reporter cells ([1]; CHX at 5 and 10 μM): significant toxicity with reduced amplitude; effective concentration range, dose response of bioluminescence activity ([1]; Per2-Luc U2OS cells): 0.2 to 2 µM; clock cycling amplitude [1, 2]: at a low concentration of 0.2 μM induced clock amplitude, but not at any higher concentrations examined; protein expression of clock regulators (CLOCK, Rev-erbα) and myogenic factors (Myf5, Myogenin) (mdx mice; one or two injections, 50 μl of 2 μM in DMSO): stronger inductions by two doses; Pax7 protein (mdx mice; three doses in PBS, pooled samples): strongly induced; myogenic factors and Bmal1 protein in individual mdx muscle (mdx mice; triple injection, n=3): two of three mice injected with CHX demonstrated marked inductions of myogenic factors together with up-regulation of Bmal1 protein; eMyHC staining (nascent regenerated myofiber) (mdx mice; triple injections, vs PBS): robust eMyHC indicative of newly-regenerated myofibers; FASN, terminal differentiation marker (primary preadipocytes; day 6 of differentiation): markedly attenuated the terminal differentiation marker of adipocytes, FASN; adipogenic factor induction (primary preadipocytes; day 6 of differentiation): only resulted in a tendency toward suppressing adipogenic factor induction
CCCCCC/C=N/C(=N)NC(=N)Nc1ccc(Cl)cc1 [CM002]	shortening of period length starting at 0.2 μM that was maintained at 2 μM; also recorded: dose-dependent effect on inducing clock period length shortening	strong clock activator	significantly reduced the areas stained positive for EBD	not significantly altered	sufficient to stimulate satellite cells proliferative expansion in dystrophic muscle to a similar degree	corresponding increase of their transcript levels	consistent reduction of expression of the pro-inflammatory cytokines examined	~35%	striking left shift toward smaller myofibers	also induced	increased new myofiber formation	significantly elevated with stronger effect by CM002	elevated protein levels of myogenic factors	strongly inhibited their differentiation; also recorded: dose-dependent reductions by CM002 at 0.5 and 1 μM concentration	LumiCycle Result: Clock activity, Amplitude ([1]; Table 1, U2OS Per2::dLuc): Amplitude: Increased; LumiCycle Result: Clock activity, Period ([1]; Table 1, U2OS Per2::dLuc): Period: Shortening; LumiCycle Result: Clock activity (overall) ([1]; U2OS Per2::dLuc, CHX analogs screened): strongest effect on activating circadian clock function; reduction of adipocyte formation in Bmal1-deficient (BMKO) preadipocytes (primary preadipocytes; six days of differentiation): severely blunted; adipocyte formation, compound given after initial two days of adipogenic induction (primary preadipocytes; vs presence throughout differentiation): still retained its efficacy of blocking adipocyte formation largely to the same extent
